Data set [1] has as its system Dahl salt-sensitive (DS) rat. As to conditions: low, non-antihypertensive doses, cited from earlier work; for memory function (passive avoidance): aged DS rats on low salt diet.
Data set [2] concerns the target T1, central mineralocorticoid receptors (Homo sapiens, UniProt P08235).
T1 sequence (P08235 1-984): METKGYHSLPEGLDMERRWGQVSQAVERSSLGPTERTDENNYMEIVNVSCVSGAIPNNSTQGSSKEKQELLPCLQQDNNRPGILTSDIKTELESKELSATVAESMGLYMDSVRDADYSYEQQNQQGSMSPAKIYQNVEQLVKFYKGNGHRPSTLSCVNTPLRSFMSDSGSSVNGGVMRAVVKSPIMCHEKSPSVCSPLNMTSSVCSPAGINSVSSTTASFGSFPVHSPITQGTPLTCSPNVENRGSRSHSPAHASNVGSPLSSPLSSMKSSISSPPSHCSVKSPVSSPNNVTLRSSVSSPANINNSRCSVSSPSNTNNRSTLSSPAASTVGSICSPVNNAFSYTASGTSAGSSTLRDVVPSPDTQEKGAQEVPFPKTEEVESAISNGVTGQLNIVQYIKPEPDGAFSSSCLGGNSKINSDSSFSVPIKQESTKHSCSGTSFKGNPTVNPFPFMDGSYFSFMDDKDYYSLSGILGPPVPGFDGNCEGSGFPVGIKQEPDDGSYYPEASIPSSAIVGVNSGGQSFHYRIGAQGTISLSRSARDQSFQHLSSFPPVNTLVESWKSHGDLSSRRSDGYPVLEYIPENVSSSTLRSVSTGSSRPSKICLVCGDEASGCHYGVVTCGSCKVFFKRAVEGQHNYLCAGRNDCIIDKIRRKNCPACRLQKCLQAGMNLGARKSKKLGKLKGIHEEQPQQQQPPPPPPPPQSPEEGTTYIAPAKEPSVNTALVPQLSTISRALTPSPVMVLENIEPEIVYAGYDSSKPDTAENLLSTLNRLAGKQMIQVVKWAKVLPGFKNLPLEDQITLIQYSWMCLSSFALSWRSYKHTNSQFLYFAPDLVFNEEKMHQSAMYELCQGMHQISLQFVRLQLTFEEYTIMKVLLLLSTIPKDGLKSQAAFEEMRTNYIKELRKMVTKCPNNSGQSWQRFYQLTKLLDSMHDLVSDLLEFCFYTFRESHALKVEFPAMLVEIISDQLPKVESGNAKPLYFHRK
As to conditions: cited from earlier work.

Another data set deals with T2, glucocorticoid receptors (Homo sapiens, UniProt P04150).
T2 sequence (P04150 1-777): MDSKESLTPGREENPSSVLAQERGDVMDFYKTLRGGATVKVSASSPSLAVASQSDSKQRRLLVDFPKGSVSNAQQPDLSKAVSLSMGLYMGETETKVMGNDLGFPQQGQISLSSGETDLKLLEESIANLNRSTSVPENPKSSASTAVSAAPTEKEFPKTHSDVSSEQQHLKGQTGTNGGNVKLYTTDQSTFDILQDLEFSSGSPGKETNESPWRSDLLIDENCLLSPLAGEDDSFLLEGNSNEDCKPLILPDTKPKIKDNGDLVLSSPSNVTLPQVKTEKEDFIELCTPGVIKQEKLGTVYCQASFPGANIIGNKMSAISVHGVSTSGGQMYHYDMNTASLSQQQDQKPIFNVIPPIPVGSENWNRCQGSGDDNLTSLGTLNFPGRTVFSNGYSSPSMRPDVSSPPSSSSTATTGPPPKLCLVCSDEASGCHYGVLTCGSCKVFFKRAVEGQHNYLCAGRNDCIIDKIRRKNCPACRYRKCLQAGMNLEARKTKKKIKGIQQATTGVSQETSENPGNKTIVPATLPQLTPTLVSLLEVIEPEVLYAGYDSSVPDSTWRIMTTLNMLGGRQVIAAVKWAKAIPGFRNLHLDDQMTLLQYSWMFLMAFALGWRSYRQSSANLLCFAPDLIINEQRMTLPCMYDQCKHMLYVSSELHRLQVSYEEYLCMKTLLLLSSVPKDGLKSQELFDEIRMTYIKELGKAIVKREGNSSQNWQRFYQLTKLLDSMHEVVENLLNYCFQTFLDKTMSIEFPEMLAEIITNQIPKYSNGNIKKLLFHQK
As to conditions: cited from earlier work.

The test system of another data set is male Wistar rats. Particulars: cited from earlier work; for corticosterone-induced increase in behavioral reactivity: pretreatment, intracerebroventricular injection.
In data set [3] the test system is patients with mild-to-moderate hypertension. In words: Phase II dose-ranging study of eplerenone in mild-to-moderate hypertension. Format: in vivo, human. Particulars: for adjusted mean change in ABPM DBP from baseline to final visit / adjusted mean change in ABPM SBP from baseline to final visit: ambulatory blood pressure monitoring; for adjusted mean change in Cuff DBP from baseline to final visit / adjusted mean change in Cuff SBP from baseline to final visit: eight-week study. The source says: The adjusted mean changes (in mmHg) in diastolic blood pressure (DBP) and systolic blood pressure (SBP) from baseline to final visit are shown in Table 1A.

Data set [4] relates to patients with HF or hypertension. Put plainly: Phase II eplerenone HF and hypertension trials. Format: in vivo, human. As to conditions: 25 to 50 mg QD.
The test system of another data set is mice. Particulars: cited from earlier work.
The nature of data set [5]: Dissolution rate of unformulated solid state forms of eplerenone. Type of data set: physicochemical. As to conditions: temperatures below the enantiotropic transition temperature.
Data set [6] can be described thus: Physical stability of solid state forms of eplerenone. Type of data set: physicochemical. Particulars: temperatures below the enantiotropic transition temperature.

Each structure is given as a SMILES string.

As to `Cc1ccnc2c1nc(C1CC1)n2Cc1ccc(-c2ccccc2C(=O)O)cc1` [Compound E4177], in [1], the “memory function (passive avoidance)” value is reported as “slightly improved”, the “capillary densities in the CA1 regions” value is on record as “not influenced” and the “hippocampal CA1 cells” value was “restored slightly”.
As to `C[C@]12C[C@H](O)[C@H]3[C@@H](CCC4=CC(=O)CC[C@@]43C)[C@@H]1CC[C@@H]2C(=O)CO` [Corticosterone], the “affinity for central mineralocorticoid receptors” value in data set [2] is given as “high affinity”. On glucocorticoid receptors, the “affinity for glucocorticoid receptors relative to mineralocorticoid receptors” value is given as “tenfold lower affinity”. Moreover, the “adrenalectomy-increased behavioral reactivity towards the object” value in the data set with male Wistar rats (50 micrograms/kg s.c.) is reported as “blocked”.
On to `COC(=O)[C@@H]1CC2=CC(=O)CC[C@]2(C)[C@@]23O[C@@H]2C[C@@]2(C)[C@@H](CC[C@@]24CCC(=O)O4)[C@H]13` [Eplerenone, Pregn-4-ene-7,21-dicarboxylic acid, 9,11-epoxy-17-hydroxy-3-oxo-,γ-lactone, methyl ester, (7α,11α,17β)-], for which, in [3] (25 mg BID), the “adjusted mean change in ABPM DBP from baseline to final visit” value (“adjusted mean change in ABPM DBP” below) is −4.1 mmHg, the “adjusted mean change in ABPM SBP from baseline to final visit” value (from here on “adjusted mean change in ABPM SBP”) is −7.5 mmHg, the “adjusted mean change in Cuff DBP from baseline to final visit” value (shortened to “adjusted mean change in Cuff DBP”) was −4.4 mmHg and the “adjusted mean change in Cuff SBP from baseline to final visit” value (from here on “adjusted mean change in Cuff SBP”) is on record as −8.1 mmHg. Moreover, in data set [3] (50 mg BID), the “adjusted mean change in ABPM DBP” value is −6.6 mmHg, the “adjusted mean change in ABPM SBP” value was −11.6 mmHg, the “adjusted mean change in Cuff DBP” value is recorded as −7.8 mmHg and the “adjusted mean change in Cuff SBP” value is reported as −11.7 mmHg. Also, in [3] (50 mg QD), the “adjusted mean change in Cuff DBP” value is on record as −4.5 mmHg. Moreover, in data set [3] (100 mg QD), the “adjusted mean change in Cuff DBP” value is −4.4 mmHg and the “adjusted mean change in Cuff SBP” value is reported as −7.9 mmHg. In addition, the “frequency of transient hyperkalemia (i.e., $5.4 mmol/L)” value in data set [3] (200 mg BID and 400 mg QD treatment groups) is listed as “increased frequency”. In [3] (200 mg BID), the “adjusted mean change in ABPM DBP” value is listed as −9.0 mmHg, the “adjusted mean change in ABPM SBP” value is on record as −16.1 mmHg, the “adjusted mean change in Cuff DBP” value was −8.9 mmHg and the “adjusted mean change in Cuff SBP” value is reported as −14.8 mmHg. Further, in [3] (400 mg QD), the “adjusted mean change in Cuff DBP” value is given as −8.7 mmHg and the “adjusted mean change in Cuff SBP” value is −15.0 mmHg. Moreover, in [3] (increasing doses, FIG. 1-1), the plasma renin activity entry is listed as “increased levels” and the serum aldosterone result is reported as “increased levels”. Also, the systolic blood pressure entry in data set [3] (increasing doses, FIG. 1-2) is listed as “decreased”. Also, the diastolic blood pressure result in data set [3] (increasing doses, FIG. 1-3) was “decreased”. In [3] (total daily doses 50, 100 or 400 mg), the tolerability entry was “well tolerated”. In addition, in data set [4], the “diuretic or hemodynamic effect” value is “neither diuretic nor hemodynamic”; the “plasma BNP levels” value is “lowered”; the “plasma renin and aldosterone levels” value is on record as “increased”. Besides, in the data set with mice (mouse, in vivo), the “effect on the ACE-inhibited mice” value was “had no effect” and the “retention-sparing effects of piracetam” value is listed as “prevented”.
Consider `COC(=O)[C@@H]1CC2=CC(=O)CC[C@]2(C)[C@@]23O[C@@H]2C[C@@]2(C)[C@@H](CC[C@@]24CCC(=O)O4)[C@H]13` [Form H, eplerenone], for which the “dissolution rate, higher than unformulated Form L” value in data set [5] is recorded as “approximately 30%”.
`COC(=O)[C@@H]1CC2=CC(=O)CC[C@]2(C)[C@@]23O[C@@H]2C[C@@]2(C)[C@@H](CC[C@@]24CCC(=O)O4)[C@H]13` [Form L, eplerenone]: the “physical stability relative to Form H” value in data set [6] is on record as “greater physical stability”.
`CCC[C@@H]1CC2=CC(=O)CC[C@]2(C)[C@H]2CC[C@@]3(C)[C@@H](CC[C@@]3(O)CCC(=O)[O-])[C@H]12.[K+]` [RU28318]: in the data set with male Wistar rats, the “corticosterone-induced increase in behavioral reactivity” value is reported as “prevented”.
For `CC#C[C@]1(O)CC[C@H]2[C@@H]3CCC4=CC(=O)CCC4=C3[C@@H](c3ccc(N(C)C)cc3)C[C@@]21C` [RU38486], the “corticosterone-induced increase in behavioral reactivity” value in the data set with male Wistar rats is on record as “not effective”.
With `CCOC(=O)[C@H](CCc1ccccc1)N[C@H]1CCCN2CCC[C@@H](C(=O)O)N2C1=O` [cilazapril], in [1], the “memory function (passive avoidance)” value is on record as “dose-dependently improved”, the “capillary densities in the CA1 regions” value is recorded as “significant increases” and the “hippocampal CA1 cells” value is recorded as “significant increases”.
Turning to `NC(=O)CN1CCCC1=O` [piracetam], in the data set with mice (pretreatment, amnesia induced by electro-shock), the retention performance result is given as “significantly improved”.

The values are drawn from patent US20060058274A1, “Use of an aldosterone receptor antagonist to improve cognitive function” (Pharmacia Corporation, priority 2000, published 2006).
